According to US20240390434A1, “PROBIOTIC ENHANCERS AND USES THEREOF” (Blis Technologies Limited, priority 2021, published 2024):

Experiments:
Format in all cases: cell-based
S. aureus A222 = test: Deferred antagonism assay, producer S. salivarius K12; conditions: for Zone of inhibition S. aureus A222 / Inhibitory activity of S. salivarius K12 in presence of saccharides, S. aureus A222: K12
Description: (§1) 1-2 producer strain colonies were transferred from a stock plate into 900 μL of suspension solution using a fresh cotton swab. Following this, suspensions were vortexed, and a sample was inoculated onto solid culture media using a fresh cotton swab. The inoculation was a streak that runs diametrically across the agar plate in a 1.5 cm wide strip. The plate was then incubated. Following incubation all visible colonies were removed by swabbing them from the agar surface. The plates were then treated with chloroform by dispensing 2 ml of chloroform onto 4 cm×4 cm piece of cloth and sealing the inverted agar plate on top for 30 minutes. The plates were then air dried for 30 minutes following chloroforming. 1-2 indicator strain colonies were then transferred from a stock plate into complementary suspension solution. The suspensions were then vortexed, and a sample was inoculated onto the same agar surface. These samples were streaked in a perpendicular direction to the initial producer streak.
(§2) Each indicator streak was prepared with fresh a suspension containing cells from a corresponding stock plate containing the indicator strain of interest. Indicator strains suspension samples were transferred using a fresh cotton swab. Results were measured by qualitatively reviewing the subsequent (if any) sizes of the zones of inhibition (ZOI) of indicator strain colony growth. A positive result is when there is a distinctive reduction or complete inhibition of indicator colony growth on the culture medium.
(§3) CABCa agar plates containing various concentrations of saccharide were prepared according to the methods described in Method 1. Producer strains were transferred from stock agar plates into 900 μL THB using a fresh cotton swab. A plastic spread plater was cut to approximately 1.2 cm width and then dipped into ethanol and left to air dry to ensure sterility. A 100 μL sample of the producer strain suspension was then dispensed onto the agar surface in a straight line running diametrically across the agar surface in (approximately) 20 μL spots. The spots were spaced approximately 1.5 cm apart from each other. The plastic spreader was then used to evenly distribute the spots across the agar surface in a 1.5 cm wide strip. This step was taken to ensure an even producer streak was inoculated onto the agar surface and provided an approximate measure of the initial inoculum concentration. Separate plastic spreaders were used for samples containing different producer strains. The samples were left to soak into the agar surface until there was no visible liquid remaining on the agar surface (approximately 20 minutes). Following producer streak preparations, the deferred antagonism assay protocol was followed as per Method 2. Results were recorded by measuring the size of the zone of inhibition (ZOI) in mm.
(§4) A dose response assay was carried out according to method 3 above, except a 1.2 cm streak was used. For the individual saccharide testing the pH of the producer streak was adjusted after the growth of producer to change the acidic conditions.
(§5) A deferred antagonism assay was conducted using K12 or M18 raw ingredient suspended in Todd Hewitt broth (THB). This was spread as a 1.2 cm streak containing approximately 1-2×10^6 cfu down the middle of a CABCa control or CABCa galactose supplemented test plate. After 18 hrs growth at 37° C. with 5% CO2, bacterial growth was removed, and the pH of the agar in the initial streak was measured and adjusted to a pH of 6.5-7.5 using 0.5M sodium carbonate pH11 before sterilizing the agar surface using chloroform vapor. Bacterial test strains were suspended in i-THB before being swabbed across the plates perpendicular to the initial streak. Plates were incubated for a further 18 hrs incubation at 37° C. with 5% CO2 before measuring (mm) any zones of inhibition for each test strain, […]

S. constellatus T29 = test: as above; conditions: for Zone of inhibition S. constellatus T29: K12
Description: as §1, §2, §3, §4, §5

S. mutans OMZ175 = test: as above; conditions: for Zone of inhibition S. mutans OMZ175 / Inhibitory activity of S. salivarius K12 in presence of saccharides, S. mutans OMZ175: K12
Description: as §1, §2, §3, §4, §5

S. pneumoniae D39 = test: as above; conditions: for Zone of inhibition S. pneumoniae D39: K12
Description: as §1, §2, §3, §4, §5

S. pyogenes 71-698 = test: as above; conditions: for Zone of inhibition S. pyogenes 71-698: K12
Description: as §1, §2, §3, §4, §5

[1] = system: S. saprophyticus ATCC 15305; test: as above; conditions: for Zone of inhibition S. saprophyticus ATCC 15305 / Inhibitory activity of S. salivarius K12 in presence of saccharides, S. saprophyticus ATCC 15305: K12
Description: as §1, §2, §3, §4, §5

M. catarrhalis TW1 = test: Deferred antagonism assay, producer S. salivarius M18
Description: as §1, §2, §3, §4

indicator strains = test: Deferred antagonism assay, producer S. salivarius M18: total strains inhibited
Description: as §1, §2, §3, §4, §5

[2] = 2.5, 5 and 10% w/v raffinose added

## OC[C@H]1O[C@H](OC[C@H]2O[C@H](O[C@]3(CO)O[C@H](CO)[C@@H](O)[C@@H]3O)[C@H](O)[C@@H](O)[C@@H]2O)[C@H](O)[C@@H](O)[C@H]1O [Raffinose, D-(+) Raffinose pentahydrate]
S. aureus A222; 1.25, 2.5, 5 and 10% w/v raffinose added
  sensitivity of S. aureus A222 to K12: sensitive
S. aureus A222; Raffinose 1.7% wt
  Zone of inhibition S. aureus A222: 12 mm
S. aureus A222; Raffinose 1.7% wt, pH adjusted
  Zone of inhibition S. aureus A222: 8 mm
S. aureus A222; Raffinose 2.5% wt
  Zone of inhibition S. aureus A222: 15 mm
S. aureus A222; Raffinose 2.5% wt, pH adjusted
  Zone of inhibition S. aureus A222: 15 mm
S. aureus A222; Raffinose 3.3% wt
  Zone of inhibition S. aureus A222: 16 mm
S. aureus A222; Raffinose 3.3% wt, pH adjusted
  Zone of inhibition S. aureus A222: 13 mm
S. aureus A222; Raffinose 5% wt
  Zone of inhibition S. aureus A222: 14 mm
S. aureus A222; Raffinose 5% wt, pH adjusted
  Zone of inhibition S. aureus A222: 14 mm
S. aureus A222; Raffinose 10% wt
  Zone of inhibition S. aureus A222: 13 mm
S. aureus A222; Raffinose 10% wt, pH adjusted
  Zone of inhibition S. aureus A222: 13 mm
S. aureus A222; saccharide 3.3% w/v
  Inhibitory activity of S. salivarius K12 in presence of saccharides, S. aureus A222: ✓
S. aureus A222; saccharide range 2.5%-10% w/v
  Inhibitory activity of S. salivarius K12 in presence of saccharides, S. aureus A222: ✓
S. constellatus T29; 0.5 to 10% w/v raffinose
  inhibition by K12 of S. constellatus T-29: increase in inhibition
S. constellatus T29; Raffinose 1.7% wt
  Zone of inhibition S. constellatus T29: 8 mm
S. constellatus T29; Raffinose 1.7% wt, pH adjusted
  Zone of inhibition S. constellatus T29: 4 mm
S. constellatus T29; Raffinose 2.5% wt
  Zone of inhibition S. constellatus T29: 22 mm
S. constellatus T29; Raffinose 2.5% wt, pH adjusted
  Zone of inhibition S. constellatus T29: 18 mm
S. constellatus T29; Raffinose 3.3% wt, pH adjusted
  Zone of inhibition S. constellatus T29: 16 mm
S. constellatus T29; Raffinose 5% wt, pH adjusted
  Zone of inhibition S. constellatus T29: 12 mm
S. constellatus T29; Raffinose 10% wt
  Zone of inhibition S. constellatus T29: 2 mm
S. constellatus T29; Raffinose 10% wt, pH adjusted
  Zone of inhibition S. constellatus T29: 11 mm
S. mutans OMZ175; [2]
  sensitivity of S. mutans OMZ175 to K12: sensitive
S. mutans OMZ175; Raffinose 1.7% wt
  Zone of inhibition S. mutans OMZ175: 11 mm
S. mutans OMZ175; Raffinose 1.7% wt, pH adjusted
  Zone of inhibition S. mutans OMZ175: 7 mm
S. mutans OMZ175; Raffinose 2.5% wt
  Zone of inhibition S. mutans OMZ175: 16 mm
S. mutans OMZ175; Raffinose 2.5% wt, pH adjusted
  Zone of inhibition S. mutans OMZ175: 13 mm
S. mutans OMZ175; Raffinose 3.3% wt
  Zone of inhibition S. mutans OMZ175: 16 mm
S. mutans OMZ175; Raffinose 3.3% wt, pH adjusted
  Zone of inhibition S. mutans OMZ175: 14 mm
S. mutans OMZ175; Raffinose 5% wt
  Zone of inhibition S. mutans OMZ175: 16 mm
S. mutans OMZ175; Raffinose 5% wt, pH adjusted
  Zone of inhibition S. mutans OMZ175: 15 mm
S. mutans OMZ175; Raffinose 10% wt
  Zone of inhibition S. mutans OMZ175: 15 mm
S. mutans OMZ175; Raffinose 10% wt, pH adjusted
  Zone of inhibition S. mutans OMZ175: 10 mm
S. mutans OMZ175; saccharide 3.3% w/v
  Inhibitory activity of S. salivarius K12 in presence of saccharides, S. mutans OMZ175: ✓
S. mutans OMZ175; saccharide range 2.5%-10% w/v
  Inhibitory activity of S. salivarius K12 in presence of saccharides, S. mutans OMZ175: ✓
S. pneumoniae D39; 0.5 to 10% w/v raffinose
  inhibition by K12 of S. pneumoniae: increase in inhibition
S. pneumoniae D39; Raffinose 1.7% wt
  Zone of inhibition S. pneumoniae D39: 5 mm
S. pneumoniae D39; Raffinose 1.7% wt, pH adjusted
  Zone of inhibition S. pneumoniae D39: 10 mm
S. pneumoniae D39; Raffinose 2.5% wt
  Zone of inhibition S. pneumoniae D39: 8 mm
S. pneumoniae D39; Raffinose 2.5% wt, pH adjusted
  Zone of inhibition S. pneumoniae D39: 9 mm
S. pneumoniae D39; Raffinose 3.3% wt
  Zone of inhibition S. pneumoniae D39: 10 mm
S. pneumoniae D39; Raffinose 3.3% wt, pH adjusted
  Zone of inhibition S. pneumoniae D39: 7 mm
S. pneumoniae D39; Raffinose 5% wt
  Zone of inhibition S. pneumoniae D39: 8 mm
S. pneumoniae D39; Raffinose 5% wt, pH adjusted
  Zone of inhibition S. pneumoniae D39: 13 mm
S. pneumoniae D39; Raffinose 10% wt
  Zone of inhibition S. pneumoniae D39: 10 mm
S. pneumoniae D39; Raffinose 10% wt, pH adjusted
  Zone of inhibition S. pneumoniae D39: 10 mm
S. pyogenes 71-698; 0.5 to 10% w/v raffinose
  inhibition by K12 of S. pyogenes: increase in inhibition
S. pyogenes 71-698; Raffinose 1.7% wt
  Zone of inhibition S. pyogenes 71-698: 10 mm
S. pyogenes 71-698; Raffinose 1.7% wt, pH adjusted
  Zone of inhibition S. pyogenes 71-698: 4 mm
S. pyogenes 71-698; Raffinose 2.5% wt
  Zone of inhibition S. pyogenes 71-698: 9 mm
S. pyogenes 71-698; Raffinose 2.5% wt, pH adjusted
  Zone of inhibition S. pyogenes 71-698: 3 mm
S. pyogenes 71-698; Raffinose 3.3% wt
  Zone of inhibition S. pyogenes 71-698: 11 mm
S. pyogenes 71-698; Raffinose 5% wt
  Zone of inhibition S. pyogenes 71-698: 7 mm
S. pyogenes 71-698; Raffinose 5% wt, pH adjusted
  Zone of inhibition S. pyogenes 71-698: 1 mm
S. pyogenes 71-698; Raffinose 10% wt
  Zone of inhibition S. pyogenes 71-698: 3 mm
S. pyogenes 71-698; Raffinose 10% wt, pH adjusted
  Zone of inhibition S. pyogenes 71-698: 3 mm
[1]; [2]
  sensitivity of S. saprophyticus ATCC 15305 to K12: sensitive
[1]; Raffinose 1.7% wt
  Zone of inhibition S. saprophyticus ATCC 15305: 7 mm
[1]; Raffinose 1.7% wt, pH adjusted
  Zone of inhibition S. saprophyticus ATCC 15305: 0 mm
[1]; Raffinose 2.5% wt
  Zone of inhibition S. saprophyticus ATCC 15305: 12 mm
[1]; Raffinose 2.5% wt, pH adjusted
  Zone of inhibition S. saprophyticus ATCC 15305: 8 mm
[1]; Raffinose 3.3% wt
  Zone of inhibition S. saprophyticus ATCC 15305: 12 mm
[1]; Raffinose 3.3% wt, pH adjusted
  Zone of inhibition S. saprophyticus ATCC 15305: 11 mm
[1]; Raffinose 5% wt
  Zone of inhibition S. saprophyticus ATCC 15305: 13 mm
[1]; Raffinose 5% wt, pH adjusted
  Zone of inhibition S. saprophyticus ATCC 15305: 12 mm
[1]; Raffinose 10% wt
  Zone of inhibition S. saprophyticus ATCC 15305: 12 mm
[1]; Raffinose 10% wt, pH adjusted
  Zone of inhibition S. saprophyticus ATCC 15305: 11 mm
[1]; saccharide 3.3% w/v
  Inhibitory activity of S. salivarius K12 in presence of saccharides, S. saprophyticus ATCC 15305: ✓
[1]; saccharide range 2.5%-10% w/v
  Inhibitory activity of S. salivarius K12 in presence of saccharides, S. saprophyticus ATCC 15305: ✓
M. catarrhalis TW1; 1.5% (w/v) raffinose
  change in zone of inhibition size M. catarrhalis TW1: 31 mm
M. catarrhalis TW1; Raffinose 1.7% wt
  Zone of inhibition M. catarrhalis TW1: 7 mm
M. catarrhalis TW1; Raffinose 1.7% wt, pH adjusted
  Zone of inhibition M. catarrhalis TW1: 0 mm
M. catarrhalis TW1; Raffinose 2.5% wt
  Zone of inhibition M. catarrhalis TW1: 17 mm
M. catarrhalis TW1; Raffinose 2.5% wt, pH adjusted
  Zone of inhibition M. catarrhalis TW1: 0 mm
M. catarrhalis TW1; Raffinose 3.3% wt
  Zone of inhibition M. catarrhalis TW1: 0 mm
M. catarrhalis TW1; Raffinose 3.3% wt, pH adjusted
  Zone of inhibition M. catarrhalis TW1: 0 mm
M. catarrhalis TW1; Raffinose 5% wt
  Zone of inhibition M. catarrhalis TW1: 15 mm
M. catarrhalis TW1; Raffinose 5% wt, pH adjusted
  Zone of inhibition M. catarrhalis TW1: 0 mm
M. catarrhalis TW1; Raffinose 10% wt
  Zone of inhibition M. catarrhalis TW1: 0 mm
M. catarrhalis TW1; Raffinose 10% wt, pH adjusted
  Zone of inhibition M. catarrhalis TW1: 0 mm
Indicator strains; Raffinose 1.7% wt
  Total number of strains inhibited: 6
Indicator strains; Raffinose 1.7% wt, pH adjusted
  Total number of strains inhibited: 6
Indicator strains; Raffinose 2.5% wt
  Total number of strains inhibited: 7
Indicator strains; Raffinose 2.5% wt, pH adjusted
  Total number of strains inhibited: 6
Indicator strains; Raffinose 3.3% wt
  Total number of strains inhibited: 6
Indicator strains; Raffinose 3.3% wt, pH adjusted
  Total number of strains inhibited: 6
Indicator strains; Raffinose 5% wt
  Total number of strains inhibited: 7
Indicator strains; Raffinose 5% wt, pH adjusted
  Total number of strains inhibited: 6
Indicator strains; Raffinose 10% wt
  Total number of strains inhibited: 2
Indicator strains; Raffinose 10% wt, pH adjusted
  Total number of strains inhibited: 1
